Assay results taken from patent US20250120958A1, “Treatment of GM2 Gangliosidosis” (Azafaros B.V., priority 2022, published 2025).

Key:
[1] = Dynamic vapour sorption (DVS); type: physicochemical; details: high relative humidity
Source text: In addition, the behaviour of the sample of the Form 3 crystalline form of compound of formula (I) obtained by equilibration with ethyl acetate was investigated under variable water vapour pressures (DVS measurement). At the highest relative humidity of 95% the sample absorbed about 1.2% of water that was released when the relative humidity was returned to the 50% RH. The amount of absorbed water is small, and the water sorption is reversible. […] For Form 2, at high relative humidity the sample absorbed about 18% of water; however, most of the absorbed water was released when the relative humidity was returned to the 50% RH.
Dynamic vapour sorption (DVS) measurements were performed with an SPS11-100n “Sorptions Prufsystem” from ProUmid (formerly “Projekt Messtechnik”), August-Nagel-Str. 23, 89079 Ulm (Germany). About 5 mg to 20 mg of sample was put into an aluminum sample pan. Humidity change rates of 5% per hour were used.

Sandhoff mice = details: Aspirin combined with substrate reduction therapy; cited from earlier work
[2] = test system: Sandhoff mouse model (Hexb (−/−)); experiment: Survival study in Sandhoff mouse model; type: in vivo; details: Hexb (−/−) mice, treated vs vehicle/untreated
Source text: (strain: B6; 129S4-Hexbtm1Rlp/J). The mouse line was maintained by crossing homozygous −/− males with heterozygous females (generating litters with 50%−/− and 50%+/−) under specific pathogen-free conditions. All mice were housed in individual, ventilated cages (IVCs) with 12-h light/dark cycles with food and water ad libitum. Young-adult mice of the same genetic C57BL/6 background were from Jackson Laboratories. Breeding of Hexb mutants will target needs of the “Long-term” cohorts first, followed by the “16-week” biomarker study.
Cohort 1: There were a total of 6 dose groups and 2 vehicle groups using both Hexb+/− and Hexb−/− animals. […] Dosing occurred daily from day 30 to day 170, unless the animal was prematurely euthanized per protocol.
A subsequent study to explore lower doses was also performed (in the same manner as in Example 2) in which doses of 0.02, 0.06, 0.2 and 0.5 mg/kg/day were used. […] It is unclear why the 0.06 mg/kg/day had less survival as formulations were checked and confirmed accurate dosing (internal data).

## OC[C@H]1[C@@H](O)[C@H](O)[C@@H](O)CN1CCCCCOCc1ccc(-c2ccccc2)c(F)c1 [Form 2]
[1]
  water absorbed (DVS): about 18%

## CC(=O)Oc1ccccc1C(=O)O [Aspirin]
Sandhoff mice
  maximum improvement of survival: 73%
  synergy, improvement in survival: 11%

## OC[C@H]1[C@@H](O)[C@H](O)[C@@H](O)CN1CCCCCOCc1ccc(-c2ccccc2)c(F)c1 [compound of formula (I)]
[2]
  increase in survival / life expectancy: at least 22%
